# Assay results: patent publication US20220017833A1, “Methods and Compositions for Scavenging Sulfides from Hydrocarbon Fluids and Aqueous Streams” (Nexgen Oilfield Chemicals, LLC, priority 2019, published 2022)
# Columns and labels:
# Format in all cases: physicochemical
# [1] = Storage Capacity Loss Test; conditions: for BT Capacity Loss / FD Capacity Loss: 72-24 Hrs storage at room temperature; for Min to BT / Min to FD: Short Reaction Time Capacity Test, diaminol in water + 10.00 g MeOH, 20 g test
# Experimental: This test compares the scavenging capacity after 24 hours of storage of the scavenger system at room temperature to that after 72 hours of storage thereof at room temperature. In one embodiment, a sample of the scavenger system is made fresh and split in two portions. The Short Reaction Time Capacity Test is run on one portion after standing 24 hours on the bench at room temperature. Then the same test is run on the other portion after standing 72 hours on the bench at room temperature. The two measured capacities are compared to see if the product degrades in storage. Importantly, some scavengers lose activity with time due to secondary reactions and re-equilibrations that degrade their active form.
# Table 5 compares different alkyl substituents on glyoxy alkyl diaminols. These compounds were prepared by reacting one mole of glyoxal, as a 40% aqueous solution, with 2.1 moles of various primary amines in a sufficient amount of MeOH to keep the product from separating into an aqueous layer and a non-aqueous layer. For each amine substituent: methyl (Me), ethyl (Et), normal-propyl (n-Pr), iso-propyl (i-Pr), and iso-propanol [1-propan-2-ol] (i-PrOH), the presence or absence of alpha branching on that substituent is noted. The weight ratios of the diaminols, water, and MeOH, are listed, along with their equivalent weights (Eq. Wt.) and the total equivalents per 20 g test (Eq/test). To measure the product stability, the Storage Capacity Loss between 24 and 72 hours was determined. As described earlier, a fresh sample of the scavenger system is split in two portions. The Short Reaction Time Capacity Test is run on one portion after standing 24 hours on the bench at room temperature. Then the same test is run on the other portion after standing 72 hours on the bench at room temperature. Both the 24-hr and 72-hr capacities (Min to FD and BT) and molar capacities (Min/Eq FD and BT) are listed in the table with the percent capacity loss for each substituent calculated below it. […] The others lost 34% to 77% of their scavenging capacity in 48 hours (72-24), presumably due to secondary reactions and re-equilibrations that degraded their active form. In this system employing only methanol, all of these compositions failed both the Hot Spray Fouling Test and the Spent Water Flowability Test. Two of them, the iso-propylamine [propan-2-amine] and the iso-propanolamine [1-aminopropan-2-ol] passed the Spent Solids Fouling Test.
# Hot Spray Fouling Test = conditions: Table 5; glyoxy alkyl diaminol in water and MeOH only
# Description: In many gas applications, the scavenger must by sprayed into a hot gas stream. This can create insoluble materials (“solids”) as the scavenger system evaporates and/or decomposes. These solids accumulate and foul (interfere with the function) of the vessel, line, or equipment to which the scavenger is being fed. This precludes the scavenger being used in that application. Referring now to FIG. 2, a spray test system 200 is utilized to for the Hot Spray Fouling Test. In one embodiment, an injection atomizer apparatus 22 is employed, wherein the scavenger formulation (not separately labeled) is sprayed onto a sheet 26 through an atomizing nozzle 24, like that used to introduce the scavenger into a gas line, tank, or vessel. The material is first placed in a double boiler (not shown) and brought to 180° F. The heated liquid is then placed in the injection atomizer apparatus 22 and sprayed horizontally onto an aluminum sheet 26 twelve inches away. The chemical drains gravitationally down the sheet where it is funneled into a beaker 28 for collection. If solids are observed on the sheet 26 or in the draining or collected fluid, the sample fails. If no solids are observed, it passes the test.
# [2] = Spent Solids Fouling Test; conditions: Table 5, glyoxy alkyl diaminol in water and MeOH only
# Description: In every application, the active component of the scavenger system reacts with H2S to from a reaction product. Once all the active scavenger has been so reacted, it is spent. […] Thioethers are much less water soluble than amines, so the reaction products are often insoluble. Thioether bridges also connect spent scavenger molecules to each other, thereby forming insoluble polymeric solids. These solids accumulate and foul (interfere with the function) of the vessel, line, or equipment to which the scavenger is being fed. […] If any solids or insoluble viscous liquids are observed poorly dispersed in the spent scavenger system or clinging to the sides of the vessel, the scavenging system employed in that Long Reaction Time Capacity Test fails this test. A homogeneous, single-phase solution or thin layer of readily flowable non-sticking liquid constitutes a pass.
# [3] = Solution Homogeneity Test; conditions: Table 5; glyoxy alkyl diaminol in water and MeOH only
# Description: In one aspect, as two-phase reaction products are problematic, scavenger system homogeneity is desired. The two phases could be emulsified or otherwise finely dispersed, but in practice, even fine, seemingly stable dispersions eventually separate or stratify in extended storage or critical use and are not robust enough for practical use. They are not allowed, for example, to be fed through capillaries for fear of plugging them. In this pass/fail test, a sample is held up for visual inspection in a backlit clear vial. A clear, single-phase, homogeneous solution is a pass. Anything else is a fail.
# [4] = Spent Water Flowability Test; parameters: key: Pass: A homogeneous, single-phase solution or thin layer of readily flowable non-sticking liquid constitutes a pass.; Fail: Any solids or thick, sticky insoluble liquid is a fail.; PASS: A homogeneous, single-phase solution or thin layer of readily flowable non-sticking liquid constitutes a pass.; FAIL: Any solids or thick, sticky insoluble liquid is a fail; conditions: Table 5; glyoxy alkyl diaminol in water and MeOH only
# Experimental: In field applications, spent scavenger is disposed of through a wastewater system. Spent scavenger might be soluble in the scavenger system but insoluble in wastewater. If it cannot be disposed of, it is not suitable for use. To ensure wastewater processing runs trouble free, spent scavenger passing the Spent Solids Fouling Test is then added to 39 times its weight in water (2.5%) and examined again for insoluble solids and viscous, sticky liquids that might foul the wastewater system. Any solids or thick, sticky insoluble liquid is a fail. A homogeneous, single-phase solution or thin layer of readily flowable non-sticking liquid constitutes a pass.
# [5] = Sample Age 24 Hrs at room temperature
# [6] = Sample Age 72 Hrs at room temperature
SMILES,BT Capacity Loss [1] [%],FD Capacity Loss [1] [%],Min/Eq BT ([1]; Sample Age 24 Hrs) [Min/Eq],Min/Eq FD ([1]; Sample Age 24 Hrs) [Min/Eq],"Min to BT [1, 5] [min]","Min to FD [1, 5] [min]",Min/Eq BT ([1]; Sample Age 72 Hrs) [Min/Eq],Min/Eq FD ([1]; Sample Age 72 Hrs) [Min/Eq],"Min to BT [1, 6] [min]","Min to FD [1, 6] [min]",Hot Spray Fouling (Hot Spray Fouling Test),Spent Solids Fouling [2],Spent Solids Fouling ([2]; listed as iso-propanolamine),Solution Homogeneity [3],Spent Water Flowability [4]
CC(O)CNC(O)C(O)NCC(C)O (stereo not drawn),67,54,444,192,30,13,148,89,10,6,Fail,Pass,passed,Pass,Fail
CCNC(O)C(O)NCC (stereo not drawn) [Et],46,71,436,365,37,31,236,106,20,9,Fail,Fail,,Pass,Fail
CNC(O)C(O)NC (stereo not drawn) [Me],34,47,301,156,29,15,197,83,19,8,Fail,Fail,,Pass,Fail
CCCNC(O)C(O)NCCC (stereo not drawn) [n-Pr],55,77,501,409,38,31,224,92,17,7,Fail,Fail,,Pass,Fail
